Assays:
[1] = Antiinflammatory activity in mouse macrophages assessed as inhibition of IFN-gamma-induced nitric oxide production after 48 hrs by Griess method; type: functional, cell-based; settings: Macrophage
[2] = molecular target: NAD(P)H dehydrogenase [quinone] 1 (Mus musculus) (UniProt Q64669); assay: Induction of NQO1 activity in mouse hepatoma cells; type: cell-based
[3] = Cytotoxicity against mouse Hepa-1c1c7 cells after 48 hrs; type: cell-based; settings: read-out: LD50
[4] = molecular target: NAD(P)H dehydrogenase [quinone] 1 (Mus musculus) (UniProt Q64669); assay: Induction of NQO1 activity in mouse Hepa-1c1c7 cells after 48 hrs by Prochaska method; type: cell-based

Chain of NAD(P)H dehydrogenase [quinone] 1 (Mus musculus) (Q64669 whole entry): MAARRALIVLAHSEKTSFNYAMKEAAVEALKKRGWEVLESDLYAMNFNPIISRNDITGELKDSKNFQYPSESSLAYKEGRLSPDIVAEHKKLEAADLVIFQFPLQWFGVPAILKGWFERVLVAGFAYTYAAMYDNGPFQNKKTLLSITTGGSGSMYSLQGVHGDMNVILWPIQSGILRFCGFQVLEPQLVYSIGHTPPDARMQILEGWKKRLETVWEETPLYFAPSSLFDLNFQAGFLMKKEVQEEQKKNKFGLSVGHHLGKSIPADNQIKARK

## CC1(C)CC[C@]2(C(=O)O)CC[C@]3(C)C(=CC[C@@H]4[C@@]5(C)C=CC(=O)C(C)(C)[C@@H]5CC[C@]43C)[C@@H]2C1
[1]
  IC50: 7.1 µM

## CP(C)(=O)CCCCN=C=S
[2]
  CD: 0.4 µM

## CC(=O)CCCCN=C=S
[2]
  CD: 0.2 µM

## CC[S+]([O-])C(=O)N(CCCC[S+](C)[O-])Cc1ccc(F)cc1F (stereo not given)
[3]
  CC50 at 48 h: > 50 µM
[4]
  CD: 7.3 µM

## CC[S+]([O-])C(=O)N(CCCC[S+](C)[O-])Cc1ccc(C(C)(C)C)cc1 (stereo not given)
[3]
  CC50 at 48 h: 32 µM
[4]
  CD: 3.8 µM

## N#CCCCCN=C=S
[2]
  CD: 2 µM

## CC(=O)[C@H]1CC2CC1[C@H](N=C=S)C2 (relative stereo)
[2]
  CD: 0.3 µM

## CC[S+]([O-])C(=O)N(CCCC[S+](C)[O-])c1ccccc1 (stereo not given)
[3]
  CC50 at 48 h: > 200 µM
[4]
  CD: 43 µM

## CC[S+]([O-])C(=O)N(CCCC[S+](C)[O-])Cc1cccc2ccccc12 (stereo not given)
[3]
  CC50 at 48 h: > 50 µM
[4]
  CD: 5.3 µM

## O[C@@H]1CC2CC1C[C@@H]2N=C=S (stereo not given in full)
[2]
  CD: 19 µM

## CC(O)[C@H]1CC2CC1C[C@@H]2N=C=S (stereo not given in full)
[2]
  CD: 0.5 µM

## CC(=O)[C@H]1CC2CC1C[C@@H]2N=C=S (stereo not given in full)
[2]
  CD: 0.4 µM

## CC[S+]([O-])C(=O)N(CCCC[S+](C)[O-])C1CC1 (stereo not given)
[3]
  CC50 at 48 h: > 200 µM
[4]
  CD: 43 µM

## CS(=O)(=O)[C@H]1CC[C@@H](N=C=S)CC1
[2]
  CD: 0.4 µM

## O=C(O)CCCCN=C=S
[2]
  CD: 2.2 µM

## CC1(C)CC[C@]2(C(=O)O)CC[C@]3(C)C(=CC(=O)[C@@H]4[C@@]5(C)C=CC(=O)C(C)(C)[C@@H]5CC[C@]43C)[C@@H]2C1
[1]
  IC50: 1.4 µM

## CC1(C)CC[C@]2(C(=O)O)CC[C@]3(C)C(=CC[C@H]4C3(C)CC[C@H]3C(C)(C)C(=O)C(O)=C[C@@]34C)[C@@H]2C1 (single isomer, unassigned)
[1]
  IC50: 37 µM

## CS(=O)(=O)[C@@H]1CC2CC1[C@H](N=C=S)C2 (relative stereo)
[2]
  CD: 1 µM

## C[S@+]([O-])CCCCN=C=S
[2]
  CD: 0.2 µM

## CS(=O)(=O)[C@@H]1CCC[C@@H](CN=C=S)C1 (relative stereo)
[2]
  CD: 0.5 µM

## CC[S+]([O-])C(=O)N(CCCC[S+](C)[O-])C1CCCCC1 (stereo not given)
[3]
  CC50 at 48 h: > 200 µM
[4]
  CD: 64 µM

## CCCCC(=O)CCCCN=C=S
[2]
  CD: 2 µM

## CCCCCCN=C=S
[2]
  CD: 15 µM

## CS(=O)(=O)[C@@H]1CCC[C@H](CN=C=S)C1 (relative stereo)
[2]
  CD: 0.4 µM

## N#C[C@H]1CC2CC1C[C@@H]2N=C=S (stereo not given in full)
[2]
  CD: 0.6 µM

## CC1(C)CC[C@]2(C(=O)O)CC[C@]3(C)[C@H](C(=O)C=C4[C@@]5(C)C=C(C#N)C(=O)C(C)(C)[C@@H]5CC[C@]43C)[C@@H]2C1 [BARDOXOLONE]
[1]
  IC50: 0.0004 µM

## CSC(=O)CCCCN=C=S
[2]
  CD: 2.8 µM

## COC(=O)CCCCN=C=S
[2]
  CD: 2.8 µM

## CC[S+]([O-])C(=O)N(CCCC[S+](C)[O-])Cc1ccccc1 (stereo not given)
[3]
  CC50 at 48 h: > 200 µM
[4]
  CD: 13 µM

## CC1(C)CC[C@]2(C(=O)O)CC[C@]3(C)C(=CC[C@@H]4[C@@]5(C)CC[C@H](O)C(C)(C)[C@@H]5CC[C@]43C)[C@@H]2C1 [OLEANOLIC_ACID]
[1]
  IC50: > 40 µM

## CC(=O)[C@@H]1CC2CC1[C@H](N=C=S)C2 (relative stereo)
[2]
  CD: 0.8 µM

## CC[S+]([O-])C(=O)N(CCCC[S+](C)[O-])Cc1ccc(-c2ccccc2)cc1 (stereo not given)
[3]
  CC50 at 48 h: 16 µM
[4]
  CD: 2.8 µM

## CC1(C)CC[C@]2(C(=O)O)CC[C@]3(C)[C@H](C(=O)C=C4[C@@]5(C)C=CC(=O)C(C)(C)[C@@H]5CC[C@]43C)[C@@H]2C1
[1]
  IC50: 0.17 µM

## O=[N+]([O-])[C@H]1CC2CC1C[C@@H]2N=C=S (stereo not given in full)
[2]
  CD: 1.1 µM

## CS(=O)(=O)[C@H]1CC2CC1C[C@@H]2N=C=S (stereo not given in full)
[2]
  CD: 0.7 µM

## CS(=O)(=O)[C@H]1CC2CC1[C@H](N=C=S)C2 (relative stereo)
[2]
  CD: 0.2 µM

## COC(=O)[C@H]1CC2CC1C[C@@H]2N=C=S (stereo not given in full)
[2]
  CD: 0.7 µM

## CCCN(CCCC[S+](C)[O-])C(=O)[S+]([O-])CC (stereo not given)
[3]
  CC50 at 48 h: > 200 µM
[4]
  CD: 35 µM

## CC[S+]([O-])C(=O)N(C)CCCC[S+](C)[O-] (stereo not given)
[3]
  CC50 at 48 h: > 200 µM
[4]
  CD: 94 µM

## COC(=O)[C@H]1CC2CC1[C@H](N=C=S)C2 (stereo not given in full)
[2]
  CD: 1.6 µM

Reference: ChEMBL document CHEMBL2429766, “Keap calm, and carry on covalently” (J Med Chem, 2013)
